In patent US20130309306A1, “INTRAPULMONARY BENZODIAZEPINE FOR THE TREATMENT AND PREVENTION OF SEIZURES” (priority 2010, published 2013):

System: PTZ-induced seizures
Experiment: PTZ seizure threshold test, tonic extension endpoint, Example 2
Assay type: in vivo, mice
Experimental: NIH Swiss mice (22-30 g) were kept in a vivarium under controlled environmental conditions (temperature, 22-26° C.; humidity, 40-50%) with an artificial 12-h light/dark cycle. Wood chips were used in all cages. Experiments were performed during the light phase of the light/dark cycle after a minimum 30-min period of acclimation to the experimental room. The animal facilities were fully accredited by the Association for Assessment and Accreditation of Laboratory Animal Care. All studies were performed under protocols approved by the Animal Care and Use Committee of the University of California, Davis in strict compliance with the Guide for the Care and Use of Laboratory Animals of the National Research Council (National Academy Press, Washington, D.C.; on the internet at nap.edu/readingroom/books/labrats/).
Midazolam was administered as a commercially available injectable solution (midazolam hydrochloride, 10 mg/10 ml; APP Pharmaceuticals, Schaumburg, Ill., USA) containing sodium chloride (0.8% w/v), disodium edetate (0.01% w/v), benzyl alcohol as preservative (1% v/v) with HCl to adjust the pH 3-3.6. Pentylenetetrazol (PTZ) (Sigma-Aldrich, St. Louis, Mo., USA) was dissolved in 0.9% w/v saline. The remaining test substances were all obtained from Tocris Bioscience (Ellisville, Mo., USA) except for clonazepam, which was from Sigma-Aldrich. Finasteride was dissolved in 25% hydroxypropyl-β-cyclodextrin (Trappsol; Cyclodextrin Technologies Development, High Springs, Fla., U.S.A.). Metyrapone was dissolved in double distilled water and PK 11195 and clonazepam were suspended in 1% Tween 80 and adjusted to volume with saline.
PTZ seizure threshold was determined according to a protocol used previously in our laboratory (Dhir et al., 2011). Intravenous PTZ elicits a sequence of seizure signs beginning with twitch and progressing to clonus and tonic limb extension. In the present study, tonic extension was used as the endpoint. […] It is noteworthy that this is the endpoint originally used in studies characterizing the actions of midazolam against PTZ seizures in mice (Pieri, 1983 Br J Clin Pharmacol 16 Suppl 1: 17S-27S). A 27 gauge-¾ inch “butterfly” needle was inserted into the lateral tail vein and the needle was secured with a narrow piece of adhesive tape. The animal was placed inside a 2 L glass beaker with free aeration from the top and allowed to move freely. The needle was connected by polyethylene tubing to a Beckton, Dickinson 1 ml syringe mounted on an infusion pump (Model ‘11’ plus syringe pump; Harvard Apparatus, Holliston, Mass.). PTZ solution (10 mg/ml) was infused at a constant rate of 0.5 ml/min. The infusion was stopped at 3 min or at the onset of tonic extension, whichever occurred first. The threshold value (mg/kg) for tonic extension was determined according to the formula: (infusion duration [sec]×infusion rate [ml/min]×PTZ concentration [mg/ml]×1000)/(60 [sec]×weight of mouse [g]).
In an initial experiment, the dose-response relationship for midazolam elevation of seizure threshold was assessed at doses of 100 μg/kg to 5 mg/kg (15 min pretreatment time). […] PK 11195 was used at a dose (15 mg/kg) as in the study of Ugale et al. (2004 Brain Res. 2004 Oct. 8; 1023(1):102-11). Clonazepam was administered at a dose of 100 μg/kg (Akula et al., 2009). The volume of all intraperitoneal injections was 10 ml/kg.
Results are expressed as mean±S.E.M.; the significance of the difference in the responses of treatment groups with respect to control is based on one-way analysis of variance (ANOVA) followed by specific post-hoc comparisons using Tukey's test. Differences are considered statistically significant when the probability of type I error was less than 0.05.

CCC(C)N(C)C(=O)c1cc2ccccc2c(-c2ccccc2Cl)n1 (centres unmarked) [PK 11195, 1-(2-chlorophenyl)-N-methyl-N-(1-methylpropyl)-3-isoquinolinecarboxamide]
PTZ seizure threshold, by itself (PK 11195 15 mg/kg i.p.): did not affect the seizure threshold
effect on seizure threshold elevation produced by clonazepam (PK 11195 15 mg/kg i.p. 30 min before clonazepam (FIG. 11 lower panel)): did not reduce the seizure threshold elevation
effect on threshold elevation produced by midazolam (PK 11195 15 mg/kg i.p. 30 min before midazolam 500 μg/kg i.p. (FIG. 10)): significantly reduced the elevation in threshold

O=C1CN=C(c2ccccc2Cl)c2cc([N+](=O)[O-])ccc2N1 [clonazepam]
increase in threshold for tonic extension (vs vehicle only control) (clonazepam 100 μg/kg i.p., 15 min before i.v. PTZ infusion, in the absence of finasteride): 2.8 fold

CC(C)(C)NC(=O)[C@H]1CC[C@H]2[C@@H]3CC[C@H]4NC(=O)C=C[C@]4(C)[C@H]3CC[C@]12C [finasteride]
effect on threshold elevation caused by intratracheal midazolam (finasteride 100 mg/kg i.p. 5 min before midazolam 100 μg/kg intratracheal (FIG. 13)): did significantly reduce the threshold elevation
effect on threshold elevation caused by midazolam (finasteride 100 mg/kg i.p. 5 min before midazolam 500 μg/kg i.p. (FIG. 8)): partially reduce the threshold elevation
effect on seizure threshold elevation produced by clonazepam (finasteride 100 mg/kg i.p. before clonazepam 100 μg/kg i.p. (FIG. 11 upper panel)): did reduce the seizure threshold elevation
PTZ seizure threshold, pretreatment by itself (finasteride 100 mg/kg i.p., no midazolam (FIG. 8)): did not alter the PTZ seizure threshold
PTZ seizure threshold, pretreatment by itself (finasteride 50 and 100 mg/kg i.p. (FIG. 13)): did not alter the PTZ seizure threshold
effect on seizure threshold elevation produced by clonazepam (finasteride before lower dose of clonazepam 25 μg/kg): trend toward an effect of finasteride, although it did not reach statistical significance

CCOC(=O)c1ncn2c1CN(C)C(=O)c1cc(F)ccc1-2 [flumazenil]
effect on threshold elevation caused by intratracheal midazolam (flumazenil 5 mg/kg i.p. 5 min before midazolam 100 and 200 μg/kg intratracheal (FIG. 12)): did abolish the threshold elevation
PTZ seizure threshold, pretreatment by itself (flumazenil 5 mg/kg i.p. (FIG. 12)): did not alter the PTZ seizure threshold

CC(C)(C(=O)c1cccnc1)c1cccnc1 [metyrapone]
PTZ seizure threshold when administered prior to midazolam (metyrapone 100 mg/kg i.p. 15 min before midazolam 500 μg/kg i.p. (FIG. 9)): further increment in threshold
PTZ seizure threshold, by itself (metyrapone 100 mg/kg i.p. (FIG. 9)): significant elevation in the threshold
